{"source": "patent US20090169573A1", "about": "“T-Cell Stimulatory Peptides From The Melanoma-Associated Chondroitin Sulfate Proteoglycan And Their Use” (priority 2004, published 2009)", "key": {"CD4+ T-cell clone 3": {"tested_on": "CD4+ T-cell clone 3", "assay": "IFN-γ production of CD4+ T-cell clone 3 on peptide-pulsed autologous EBV-B cells (ELISA)", "assay_type": "cell-based, human"}, "CD4+ T-cells": {"tested_on": "CD4+ T-cells", "assay": "CD4+ T-cell induction with peptide-loaded dendritic cells, IFN-γ ELISA of microcultures", "assay_type": "cell-based, human"}, "CD8+ T-cells": {"tested_on": "CD8+ T-cells", "assay": "CD8+ T-cell induction with TAT-MCSP-peptide-loaded dendritic cells, IFN-γ ELISA of microcultures", "conditions": "donor 11325; long TAT-MCSP-peptide 10 μM; not with control peptide; FIG. 18", "method": "After 3 weekly restimulations microcultures were tested for their IFN-γ production when stimulated with autologous EBV-B cells loaded with the TAT-MCSP peptide (SEQ ID NO:54) or a control peptide.\nAliquots of approximately 4,000 CD8^+ T-cells from each 96-well microculture were co-incubated with 15,000 stimulator cells and after 20 h the IFN-γ concentration in the supernatant was measured by ELISA. […] Bars represent standard deviations.\nIn order to isolate MCSP specific CD8^+ T cells, DCs were derived from monocytes of healthy donors using IL-4 and GM-CSF and loaded with the long TAT-MCSP-peptide of SEQ ID NO:54 at 20 μg/ml overnight so that potential T-cell epitopes within this peptide could be processed and presented by the cell. DCs were matured 6 h after peptide-loading by a cytokine cocktail (IL-1β, IL-6, TNF-α, PGE2) as described in Example 3 (b). Autologous CD8^+ T-cells were stimulated with protein-loaded mature DCs in 96-well-plates on the next day (FIG. 17). […]\nAutologous EBV-B cells (5×10^5) were incubated for 18-20 h at 37° C. in the presence of 10 μg/ml or 20 μg/ml (compare Figure legends) of the MCSP peptide or an irrelevant control peptide as a negative control. […] After 18-20 h, supernatants were harvested and assessed for IFN-γ content using an ELISA assay with reagents from Medgenix Diagnostics-Biosource (Fleurus, Belgium). […]"}, "CD4+ T-cell clone 25": {"tested_on": "CD4+ T-cell clone 25", "assay_type": "cell-based, human", "conditions": "for recognition by clone 25 of overlapping 16-mer peptides: IFN-γ ELISA"}, "HLA-DR11": {"tested_on": "HLA-DR11", "assay": "HLA restriction of clone 25: blocking antibodies and EBV-B cell lines with different HLA class II molecules", "assay_type": "cell-based, human", "conditions": "IFN-γ production", "procedure": "FIG. 6: Autologous EBV-B cells (1.5×10^4) pulsed with 1 μM of the 16-mer MCSP peptide […] (SEQ ID NO:9) were used as stimulator cells in the presence of different blocking antibodies (anti-DR, anti-DQ or anti-DP). Also a control with no antibody (no Ab) was set up. All antibodies were used at a final concentration of 5 μg/ml each.\nFIG. 7: 1.5×10^4 cells of several EBV-B cell lines (LP2-, LB1981-, R12-, PV6-, AC 42- and 4800-EBV) with different HLA class II molecules (HLA-DR11 positive or HLA-DR11 negative) were pulsed/loaded for 1 h with MCSP peptide […] (SEQ ID NO:9) (1 μM, white bar) and tested for recognition by the CD4^+ T cell clone. As control, the cells were pulsed in the absence of protein (black spotted bar).\n(§1) 8. Determination of HLA restriction element utilized by MCSP-specific CD4^+ T-cell clone 25 and 3: To analyze the HLA restriction of CD4^+ T-cell clone 25 and 3, three monoclonal antibodies directed against anti-DR (L243; BD Biosciences, San Jose, USA), anti-DQ (CSPVL3; Immunotech) or anti-DP (B7/21; BD Biosciences, San Jose, USA) were used to test which one inhibited the recognition of antigen-presenting cells by the clone. First EBV-B cells (1.5×10^4 per round-bottomed microtiter plate well) were incubated for 1 h at 37° C., 8% CO2 in the presence of the peptide (SEQ ID NO:9 for clone 25, SEQ ID NO:48 for clone 3). The antibodies were added at a concentration of 5 ng/ml. The CD4^+ T-cell clone 25 or 3 was then added at 4×10^3 per well.\n9. Determination of HLA-DR restriction element utilized by MCSP-specific CD4^+ T-cell clone 25: It was determined that cytokine secretion by the CD4^+ T-cell clone 25 occurred in response to EBV-B cells pulsed/loaded with MCSP-derived peptides restricted to HLA-DR. To further define the HLA-restriction element utilized by clone 25, additional EBV-B cell lines were used for peptide presentation as described above. In particular LP2-, LB1981-, R12-, PV6-, AC 42- and 4800-EBV which have with different HLA class II molecules (HLA-DR11 positive or HLA-DR11 negative) were used. They were pulsed/loaded for 1 h with 1 μM MCSP peptide […] […]"}, "HLA-DR 11": {"tested_on": "HLA-DR 11", "assay": "HLA restriction of clone 3: blocking antibodies and EBV-B cell lines with different HLA class II molecules", "assay_type": "cell-based, human", "conditions": "peptide 5 μg/ml, IFN-γ production", "procedure": "FIG. 14: Autologous EBV-B cells (15,000) pulsed with 16-mer MCSP peptide (aa 1281-1296 (SEQ ID NO:48), 5 μg/ml) were used as stimulator cells in the presence of different blocking antibodies. All antibodies were used at a final concentration of 5 μg/ml each.\nFIG. 15: Several EBV-B cell lines with different HLA class II molecules were pulsed with peptide MCSP1281-1296 (SEQ ID NO:48; 5 μg/ml) and tested for recognition (at 15,000 cells per well) by the CD4^+ T cell clone (4,000 cells per well).\nas §1"}, "[1]": {"conditions": "autologous EBV-B cells pulsed 1 μM, 1 h, FIG. 4"}}, "data": [{"sequence": "GYLVMVSRGALA [SEQ ID NO:46]", "values": [{"measurement": "recognition of truncated peptides by clone 3", "setting": "CD4+ T-cell clone 3; truncated peptides derived from SEQ ID NO:42, 5 μg/ml, IFN-γ ELISA, FIG. 13", "result": "shortest peptide efficiently recognized"}]}, {"sequence": "YARAAARQARAPPADIVFSVKSPPSAGYLVMVSRGALADEPP [SEQ ID NO:54]", "values": [{"measurement": "number of microcultures with peptide-specific CD4+ T-cells generated", "setting": "CD4+ T-cells; DCs loaded with long TAT-MCSP-peptide at 20 μg/ml overnight, donor 11325", "result": 3}, {"measurement": "number of peptide-specific T-cell clones generated", "setting": "CD4+ T-cells; from microculture F1, limiting dilution", "result": 3}, {"measurement": "IFN-γ production of CD8+ T-cells from microcultures after stimulation with peptide-loaded autologous EBV-B-cells", "setting": "CD8+ T-cells", "result": "specific IFN-γ production"}, {"measurement": "Interferon-γ production of clone F1/3 after stimulation with peptide-loaded autologous EBV-B-cells", "setting": "CD4+ T-cell clone 3; long TAT-MCSP-peptide 10 μM overnight, not with EBV-B-cells with or without control peptide, FIG. 11", "result": "specific Interferon-γ production"}]}, {"sequence": "ETNAVGQDVSVLFRVT [SEQ ID NO:8]", "values": [{"measurement": "recognition by clone 25 of overlapping 16-mer peptides", "setting": "CD4+ T-cell clone 25; [1]", "result": "recognized"}]}, {"sequence": "VGQDVSVLFRVTGALQ [SEQ ID NO:9]", "values": [{"measurement": "presentation of peptide to clone 25 by EBV-B cell lines with different HLA class II typings", "setting": "HLA-DR11; LP2-, LB1981-, R12-, PV6-, AC 42- and 4800-EBV pulsed 1 μM 1 h, FIG. 7", "result": "only those expressing HLA-DRB1*11 (PV6-, AC 42- and 4800-EBV) were able to present the peptide to clone 25"}, {"measurement": "recognition by clone 25 of peptide-loaded autologous EBV-B cells in presence of anti-HLA-DR antibody", "setting": "HLA-DR11; peptide 1 μM, FIG. 6", "result": "completely abolished"}, {"measurement": "recognition by clone 25 of peptide-loaded autologous EBV-B cells in presence of antibodies against HLA-DP or HLA-DQ", "setting": "HLA-DR11; peptide 1 μM, FIG. 6", "result": "no influence"}, {"measurement": "efficiency of stimulation of clone 25 among overlapping 16-mer peptides", "setting": "CD4+ T-cell clone 25; [1]", "result": "most efficiently"}, {"measurement": "recognition by clone 25 of overlapping 16-mer peptides", "setting": "CD4+ T-cell clone 25; [1]", "result": "recognized"}, {"measurement": "peptide concentration found optimal to achieve CD4+ T-cell stimulation", "setting": "CD4+ T-cell clone 25; titration experiments, clone 25", "result": 2, "unit": "µg/mL"}]}, {"sequence": "YARAAARQARA [SEQ ID NO:53, TAT PDT variant peptide, reference compound]", "values": [{"measurement": "recognition by clone 3 of overlapping peptides of the 42-mer", "setting": "CD4+ T-cell clone 3; autologous EBV-B cells pulsed 5 μg/ml, 1 h, IFN-γ ELISA, FIG. 12", "result": "not"}]}, {"sequence": "LAQGSAMPILPANLSVETNAVGQDVSVLFRVTGALQFGELQK [SEQ ID NO:3]", "values": [{"measurement": "number of microcultures with peptide-specific CD4+ T-cells generated", "setting": "CD4+ T-cells; DCs loaded with the 42 mer overnight (50 μg/ml), matured by cytokine cocktail", "result": 2}, {"measurement": "number of peptide-specific T-cell clones obtained", "setting": "CD4+ T-cells; from microculture C2, limiting dilution", "result": 3}, {"measurement": "IFN-γ production of clone C2/25 after stimulation with peptide-loaded autologous EBV-B-cells", "setting": "CD4+ T-cell clone 25; 42 mer 5 μM overnight, not with EBV-B-cells with or without control peptide, FIG. 3", "result": "specific IFN-γ production"}]}, {"sequence": "PPSAGYLVMVSRGALA [SEQ ID NO:42]", "values": [{"measurement": "recognition by clone 3 of peptide-loaded autologous EBV-B cells in presence of anti-HLA-DR antibody", "setting": "HLA-DR 11; FIG. 14", "result": "abolished"}, {"measurement": "recognition by clone 3 of peptide-loaded autologous EBV-B cells in presence of antibodies against HLA-DP or HLA-DQ", "setting": "HLA-DR 11; FIG. 14", "result": "no influence"}, {"measurement": "presentation of peptide to clone 3 by EBV-B cell lines with different HLA class II typings", "setting": "HLA-DR 11; FIG. 15", "result": "only those expressing HLA-DR 11 were able to present the peptide to clone 3"}, {"measurement": "efficiency of stimulation of clone 3 among overlapping peptides", "setting": "CD4+ T-cell clone 3; autologous EBV-B cells pulsed 5 μg/ml, 1 h, FIG. 12", "result": "most efficiently"}]}]}
